These results are taken from patent US20250326748A1, “COMPOUNDS AND METHODS FOR MODULATING SPLICING” (REMIX THERAPEUTICS INC., priority 2022, published 2025).

pIC50: −log10 of the molar value. Counter-ions that a name gives are not always drawn.

As usually defined, the pIC50 is the negative decadic logarithm of the IC50, by convention in mol/L.

The test system of data set [1] is SMN2 mRNA. As to the kind of experiment: Splicing RT-qPCR panel, SMN2 canonical junction (CJ) mRNA. Conditions: Homo sapiens, read-out: SMN2 CJ (decrease in CJ mRNA levels, IC50). Format: cell-based, human. In a few lines: (§1)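 A673 cells (DMEM, 10% FBS) or K562 cells (IMDM, 10% FBS) treated 24 h at 37 °C with an 11-point 3-fold dilution, top 10 uM, DMSO ≤0.25%. Canonical-junction mRNA quantified in lysates by RT-qPCR, normalised to GAPDH, GUSB or PPIA and to DMSO (2^−ΔΔCt), then converted to % response.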

For data set [2], the system named is Target C mRNA. As to the kind of experiment: Splicing RT-qPCR panel, Target C canonical junction (CJ) mRNA. The data set is classed as cell-based, human. Conditions: Homo sapiens, read-out: Target C CJ (decrease in CJ mRNA levels, IC50). Put shortly:
as §1

Data set [3] has as its system HiBiT-tagged MYB protein. Kind of data set: HiBiT protein abundance assay, MYB (K562 HiBiT knock-in). Conditions: HiBiT knock-in cells, 24 hours. Format: cell-based, human. Put shortly: (§2)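 Endogenously HiBiT-tagged K562 knock-in lines treated 24 h at 37 °C with 10-point 3-fold dilutions (top 10 μM final, DMSO ≤0.25%) in IMDM+1% FBS. Lytic Nano-Glo luminescence normalized to DMSO and unmodified K562 controls; four-parameter fit gives 50%-abundance concentration (IC50).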

The test system of data set [4] is HiBiT-tagged HTT protein. As to the kind of experiment: HiBiT protein abundance assay, HTT (K562 HiBiT knock-in). The data set is classed as cell-based, human. Conditions: HiBiT knock-in cells, 24 hours. In a few lines:
as §2
For orientation: With HiBiT, luminescence reflects the tagged protein that the partner subunit can reach.

The test system of data set [5] is Target C. As to the kind of experiment: HiBiT protein abundance assay, Target C (K562 HiBiT knock-in). The data set is classed as cell-based, human. Conditions: HiBiT knock-in cells, 24 hours. Put shortly: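 K562 HiBiT knock-in cells (10000/well) in IMDM + 1% FBS were treated for 24 h at 37° C. with a 10-point 3-fold dilution series (top 10 μM final), with DMSO ≤0.25%. Unmodified K562 served as baseline. HiBiT lytic luminescence was normalized to controls, and IC50 was interpolated at 50% from a four-parameter fit.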

For data set [6], the system named is K562 cells. As to the kind of experiment: Cell viability, Cell Titer Glo 2.0 assay, K562. Conditions: 72 hours. On the technique in general: ATP-based viability assays read luminescence as a measure of living cells.
Description: Compounds described herein were screened for toxicity in K562 (human chronic myelogenous leukemia) and SH-SY5Y (human neuroblastoma) cells using a Cell Titer Glo 2.0 assay.
• Promega CellTiter-Glo® 2.0 Cell Viability Assay (cat #G9241) • Corning 384-well TC-treated microplates (cat #3570)
Cells were plated at 500 cells/well (K562 cells) in 45 μL of IMDM supplemented with 10% FBS in a 384-well opaque plate. Wells containing only medium were used as a blank control. Test compounds (e.g., compounds of Formula (I) or (II)) were first serially diluted in DMSO then diluted 1:100 with IMDM+10% FBS. The final concentration of DMSO was 0.1% in each well. The cells were incubated for 72 hours at 37° C. and 5% CO2 before assaying with Cell Titer Glo 2.0 reagent.

Take `C[C@@H]1CN(c2cnc3nc(-c4cc5cn(C)nc5cc4O)cc(Cl)c3c2)C[C@@H](C)N1` [Compound 243, 5-{4-chloro-6-[(3R,5R)-3,5-dimethylpiperazin-1-yl]-1,8-naphthyridin-2-yl}-2-methylindazol-6-ol hydrochloride]: the pIC50 was over 7.00 in data set [1]; 5.00 to 6.00 in data set [2]; 6.00 to 7.00 in data set [3]; 6.00 to 7.00 in data set [4]; 5.00 to 6.00 in data set [5]. In data set [6], the “Effect on Cell Viability, K562” value is “B (100-1000 nM)”.

For `C[C@H]1CN(c2cnc3nc(-c4cc(F)c5nn(C)cc5c4)cc(Cl)c3c2)C[C@H](C)N1` [Compound 250], the negative logarithm of the IC50 (pIC50) in data set [1] was over 7.00; in data set [2], 6.00 to 7.00; in data set [3], over 7.00; in data set [4], 6.00 to 7.00; in data set [5], 6.00 to 7.00. Further, in data set [6], the “Effect on Cell Viability, K562” value is recorded as “A (<100 nM)”.

Turning to `C[C@@H]1CN(c2cnc3nc(-c4cc(F)c5nn(C)cc5c4)cc(Cl)c3c2)C[C@@H](C)N1` [Compound 251], the pIC50 in data set [1] was over 7.00; in data set [2], under 5.00; in data set [3] it was 6.00 to 7.00; in data set [4], 5.00 to 6.00; in data set [5], 5.00 to 6.00. The “Effect on Cell Viability, K562” value in data set [6] is “B (100-1000 nM)”.

As for `Cc1c(O)c(-c2cc(-c3nnc[nH]3)c3cc(N4C[C@@H](C)N[C@@H](C)C4)cnc3n2)cc2cn(C)nc12` [Compound 261, 5-{6-[(3R,5S)-3,5-dimethylpiperazin-1-yl]-4-(4H-1,2,4-triazol-3-yl)-1,8-naphthyridin-2-yl}-2,7-dimethylindazol-6-ol], the pIC50 in data set [1] is over 7.00; in data set [2] it was 6.00 to 7.00; in data set [3], under 5.00; in data set [4] it was under 5.00; in data set [5], 5.00 to 6.00. In data set [6], the “Effect on Cell Viability, K562” value was “D (greater than 10 μM)”.

In the case of `C[C@@H]1CN(c2cnc3nc(-c4cc5cn(C)nc5c(F)c4O)cc(C#N)c3c2)C[C@H](C)N1` [Compound 266, 6-[(3R,5S)-3,5-dimethylpiperazin-1-yl]-2-(7-fluoro-6-hydroxy-2-methylindazol-5-yl)-1,8-naphthyridine-4-carbonitrile hydrochloride], the pIC50 in data set [1] was over 7.00; in data set [2] it was 5.00 to 6.00; in data set [3], over 7.00; in data set [4], 6.00 to 7.00; in data set [5], 5.00 to 6.00. In addition, the “Effect on Cell Viability, K562” value in data set [6] is “A (<100 nM)”.

`CN[C@@H]1CCN(c2cnc3nc(-c4cc5cn(C)nc5c(F)c4O)cc(Cl)c3c2)C1` [Compound 271]: the pIC50 in data set [1], in data set [2], in data set [3], in data set [4] and in data set [5] was over 7.00 in each case. For the same molecule, the “Effect on Cell Viability, K562” value in data set [6] is listed as “A (<100 nM)”.
